How the values were obtained:
[1] = target: T1, RNase H activity of HIV RT/RNaseH (Human immunodeficiency virus type 1 group M subtype B, UniProt P04585); assay: Permeabilized HIV virions with ODN A and Illimaquinone, viral RNA degradation by real-time PCR; conditions: 150 μM Illimaquinone, 50 nM ODN A, 0.1% NP-40 permeabilized virions, 30 min 37° C., without added RT/RNaseH
[2] = target: T1, RNase H activity of HIV RT/RNaseH; design: the HIV RT/RNase H is a heterodimer of p66 and p51 with and without RNase H; endogenous in cells; host or cells: permeabilized HIV virions (virion-associated enzyme); panel B has added recombinant RT/RNaseH at 0.05 units/µl; conditions: previously described; cited from earlier work
[3] = test system: HIV virions; assay: Infectivity of ODN-pre-incubated HIV virions in C81-66/45 cells; format: cell-based; conditions: for binding/uptake of pre-treated virions by host cells: pre-incubation 4 hours, HIV RNA in infected cells 1 hour post-infection
Procedure: As a next step we investigated the antiviral effect of ODNs by testing the infectivity of treated virions in cell culture studies. We used ODN A, ODN T, as PPT and ODN CO. 2×10^5 C81-66/45 cells were infected with virions pre-incubated with different ODNs at 0.01 MOI for 1, 2 or 4 hours prior to infection. RNA was extracted from infected cells and HIV replication was analysed by real-time PCR 3 days post-infection.
To test the specificity of suppression of viral replication, the effect of ODN A on the infectivity of virions was compared with control ODNs. Virions were pre-treated with the ODNs and HIV replication in infected cells was analysed by real-time PCR, 5 days (FIG. 6A) or 20 days post-infection (FIG. 6B) and by measuring p24 production in the supernatant of the infected cells (FIG. 6C).
(A) HIV virions were incubated with 0.5 μM of ODNs for 1, 2 or 4 hours. C81-66/45 cells were infected with pre-incubated virions, at 0.01 MOI. RNA was extracted from infected cells and HIV replication was analysed by real-time PCR, 3 days post-infection (p.i.).
(B) The same experiment as in (A) was performed with ODN T, ODN CO, asPPT and ODN A pre-treated virions.
(D) C81-66145 cells were infected with virions pre-incubated with 0.5 or 5 μM of ODNs for 4 h, at an MOI of 1. RNA was extracted from infected cells and HIV replication was analysed by real-time PCR, 3 days post-infection.
(E) C81-66/45 cells were infected with virions pre-incubated with ODN A and ODN Sc for 4 h, at an MOI of 0.01. RNA was extracted from infected cells and HIV replication was analysed by real-time PCR, 1 h and 24 h post-infection. (F) The same experiment as in (E) was performed except for using ODN T, ODN B and ODN A, 1 hour post-infection.
C81-66/45 cells were infected with virions pre-incubated with ODN A, ODN T, ODN CO or as PPT for 4 h, at MOI of 0.01. RNA was extracted from infected cells and HIV replication was analysed by real-time PCR, 5 days p.i. (A), and 20 days p.i. (B); by measuring p24 production in the medium of the infected cells (C) or by RT-PCR, 11 days p.i. (D).

[4] = test system: HIV virions; assay: ODN-mediated cleavage of viral RNA in intact HIV virions (real-time PCR, RT-PCR, agarose gel); format: biochemical; conditions: 0.5 μM ODN, intact HIV virions, RPMI medium, 6 hours
[5] = test system: SFFV; assay: NIH 3T3 cells infected with ODN-pretreated SFFV; format: cell-based; conditions: three days post-infection, real-time RT-PCR
Source text: As next step we investigated the antiviral effect of ODNs by testing pre-treated virions for residual infectivity as has been described before for HIV particles. SFFV particles were pretreated with ODN M or its variants and used to infect NIH 3T3 cells. After three days RNA was extracted from infected cells and from the supernatants and SFFV was quantified by real-time RT-PCR and analysis of amplification products (FIG. 9b).
b. NIH 3T3 cells were infected with SFFV pretreated with various ODNs. After three days the cells and supernatants were harvested and analyzed for SFFV RNA levels by quantitative real time RT-PCR (top) and RT-PCR (bottom) using GAPDH for comparison.

**Q.** Which results are given for C=C1CCC[C@H]2[C@](C)(CC3=C(O)C(=O)C=C(OC)C3=O)[C@@H](C)CC[C@]12C [Illimaquinone]?
**A.** ODN A-mediated viral RNA cleavage in presence of Illimaquinone [1]: failed to induce cleavage; inhibition of RNase H activity of HIV RT/RNaseH [2]: specifically inhibit the RNase H activity

**Q.** Which “binding/uptake of pre-treated virions by host cells” value [3] does the source give for “AAAAGAAAAGGGGGGACTGGTTGGGTTTTCCCTTCCAGTCCCCCCTTTTCTTTT (chemistry not given here) [ODN T, passenger strand fully complementary to the antisense strand]” here?
**A.** uptake similar to ODN A

**Q.** What about the “HIV replication in infected cells (real-time PCR)” value ([3]; virions pre-incubated 4 hours with 0.5 μM ODN, 0.01 MOI, 3 days post-infection) of the same molecule?
**A.** low but detectable levels

**Q.** And the “amount of undigested viral RNA (real-time PCR, primers covering PPT region)” value (“amount of undigested viral RNA” for short) [4]?
**A.** less efficient cleavage of the viral RNA

**Q.** With “TCTTTTTGCGCGCTTTGTTTGTTTTTTCTTTCATTCCCCCCTTTTTCT (chemistry not given here) [ODN CG, ODN M variant with a triple nucleotide change in the second strand (SFFV tests)]” as the molecule, how does the “SFFV RNA in infected cells and supernatant” value [5] read?
**A.** clearly less efficient

**Q.** What about the “amount of undigested viral RNA” value [4] of the same molecule?
**A.** antiviral activity similar to ODN A

**Q.** Which “SFFV RNA in infected cells and supernatant” value [5] does the source give for “TCTTTTTGGGGGGAATGTTTGTTTTTTCTTTCATTCCCCCCTTTTTCT (DNA, backbone and methylation of C not given here) [ODN S, ODN M variant, two nucleotide changes in the second strand]” here?
**A.** clearly less efficient

**Q.** With “TTTCTTTTGGGGGGTTTGGTTGGGTTTTCCCTTCCAGTCCCCCCTTTTCTTT (chemistry not given here) [ODN B, one nucleotide removed from both 5′ and 3′ ends of ODN A]” as the molecule, how does the “binding/uptake of pre-treated virions by host cells” value [3] read?
**A.** uptake similar to ODN A

**Q.** And the “amount of undigested viral RNA” value [4]?
**A.** less efficient cleavage of the viral RNA

**Q.** With “TTTGGGGGGTTCTTCCTCCTTTCCTTTTTCGCCCGTCCGTTGCGTTGATTTTTT (chemistry not given here) [ODN Sc, reference compound]” as the molecule, how does the “amount of undigested viral RNA” value [4] read?
**A.** less efficient cleavage of the viral RNA

**Q.** Which “amount of undigested viral RNA” value [4] does the source give for “TTTTCTTTTGCGCGCTTTGGTTGGGTTTTCCCTTCCAGTCCCCCCTTTTCTTTT (chemistry not given here) [ODN NT, triple substitution in the passenger strand at site complementary to CCCCCC]” here?
**A.** less efficient cleavage of the viral RNA

**Q.** Which “amount of undigested viral RNA” value [4] does the source give for “TTTTCTTTTGGGGGGACTGGTTGGGTTTTCCCTTCCAGTCCCCCCTTTTCTTTT (chemistry not given here) [ODN H, triple substitution in the passenger strand]” here?
**A.** less efficient cleavage of the viral RNA
